Consider 17 compounds from patent US8134015B2, “Compound inhibiting in vivo phosphorous transport and medicine containing the same” (Kyowa Hakko Kirin Co., Ltd., priority 2003, dated 2012).

Where a name gives a salt, the structure may show the parent alone.

For orientation: IC50 means the concentration needed to halve the response being measured.

One test deals with T1, rat NaPi-2b (Rattus norvegicus, UniProt Q9JJ09).
T1 construct: expressed in transfected cells; host or cells: Xenopus oocytes injected with cRNA
T1 sequence (Q9JJ09 1-695): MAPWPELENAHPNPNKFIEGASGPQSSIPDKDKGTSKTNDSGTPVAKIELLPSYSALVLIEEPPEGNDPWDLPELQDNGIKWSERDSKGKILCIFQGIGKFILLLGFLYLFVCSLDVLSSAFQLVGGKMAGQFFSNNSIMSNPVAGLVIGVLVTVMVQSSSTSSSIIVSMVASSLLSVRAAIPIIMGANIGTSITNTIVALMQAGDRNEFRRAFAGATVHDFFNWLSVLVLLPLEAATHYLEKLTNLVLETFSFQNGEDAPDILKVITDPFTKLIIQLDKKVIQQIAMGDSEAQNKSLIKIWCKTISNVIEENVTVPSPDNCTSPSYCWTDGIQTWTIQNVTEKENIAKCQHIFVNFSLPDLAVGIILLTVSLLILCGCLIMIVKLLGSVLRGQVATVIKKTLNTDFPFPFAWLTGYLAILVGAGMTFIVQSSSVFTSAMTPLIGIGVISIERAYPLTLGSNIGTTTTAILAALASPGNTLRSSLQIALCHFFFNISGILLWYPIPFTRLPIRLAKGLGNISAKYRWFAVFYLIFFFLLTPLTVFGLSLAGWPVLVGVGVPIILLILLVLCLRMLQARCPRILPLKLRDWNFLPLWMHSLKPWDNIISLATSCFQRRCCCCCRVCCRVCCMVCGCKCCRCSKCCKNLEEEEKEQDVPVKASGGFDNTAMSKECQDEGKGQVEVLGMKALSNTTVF
The test can be described thus: Sodium-dependent phosphate uptake of Xenopus oocytes which expressed NaPi-2b (32P). It counts as cell-based. To be noted: Xenopus oocytes expressing rat NaPi-2b, 32P radioactive phosphorus; read-out: IC50 (phosphate uptake inhibitory activity). The method, boiled down:
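Rat NaPi-2b cloned from small-intestine cDNA; cRNA injected into Xenopus oocytes, expression for 2 days. Phosphate uptake inhibition measured with 32P; percent inhibition at 300 μM and 100 μM read from the same inhibition curve.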

Another test deals with SD rats. The test can be described thus: Inhibitory activity against 32P absorption from intestinal tract. Type of test: in vivo. The settings on record: Rattus norvegicus, oral, read-out: Blood radioactivity inhibition, %. As to the method:
Pharmacological Test Example 4
Inhibitory Activity Against ^32P Absorption from Intestinal Tract
SD rats (6 to 7 weeks old, obtained from Charles River Japan, Inc. (Japan)) were raised with low-phosphorus diet (phosphorus content 0.1%, manufactured by Oriental Yeast Co., Ltd. (Japan)) for 3 to 4 days and then fasted for about 24 hr for experiment. ^32P was diluted with purified water or liquid feed (CLEA JAPAN INC. (Japan)) to 0.7 to 3.5 MBq/ml and was forcibly orally administered at a dose of 5 ml/kg (administered into the gaster through an oral probe). The compounds or media were forcibly orally administered at a dose of 5 ml/kg (divided dose of twice), 30 min before the administration of ^32P and simultaneously with the administration of ^32P. Blood was collected from caudal artery 30 min, 45 min, or 60 min after ^32P administration, and blood ^32P radioactivity was measured with a liquid scintillation counter. Inhibition of an increase in blood radioactivity was used as a measure of inhibition of phosphate absorption from the intestinal tract.
The results are expressed in terms of the percentage inhibition determined by the following equation. (Blood radioactivity for group with the administration of medium−Blood radioactivity for group with the administration of compound)/(Blood radioactivity for group with the administration of medium)×100
t-Test was used for a significant test of the average value difference of blood radioactivity.

In a further test the target is T2, human NaPi-2a (Homo sapiens, UniProt Q06495).
T2 construct: expressed in transfected cells
T2 sequence (Q06495 1-639): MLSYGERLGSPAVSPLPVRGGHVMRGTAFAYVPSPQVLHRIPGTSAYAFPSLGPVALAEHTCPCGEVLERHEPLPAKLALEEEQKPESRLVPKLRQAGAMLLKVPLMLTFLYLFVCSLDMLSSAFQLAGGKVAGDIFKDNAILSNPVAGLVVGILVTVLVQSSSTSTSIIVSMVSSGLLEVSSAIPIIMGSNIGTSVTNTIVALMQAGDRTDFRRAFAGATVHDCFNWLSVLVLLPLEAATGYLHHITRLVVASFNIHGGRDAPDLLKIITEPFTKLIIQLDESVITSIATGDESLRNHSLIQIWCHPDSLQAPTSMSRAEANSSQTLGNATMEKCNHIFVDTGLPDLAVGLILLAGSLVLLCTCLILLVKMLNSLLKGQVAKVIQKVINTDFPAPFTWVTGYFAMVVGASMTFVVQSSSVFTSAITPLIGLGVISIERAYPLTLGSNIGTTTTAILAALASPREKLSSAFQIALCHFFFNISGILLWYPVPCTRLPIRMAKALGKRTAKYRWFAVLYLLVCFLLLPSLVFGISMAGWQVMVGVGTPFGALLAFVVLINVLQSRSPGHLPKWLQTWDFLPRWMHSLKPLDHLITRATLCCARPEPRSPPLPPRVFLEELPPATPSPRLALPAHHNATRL
The test can be described thus: Sodium-dependent phosphate uptake of Xenopus oocytes which expressed NaPi-2a (32P). The settings on record: phosphate uptake, Xenopus oocytes expressing human NaPi-2a; five concentration levels. Type of test: cell-based. The source says:
Experiment of Sodium-Dependent Phosphate Uptake of Xenopus oocytes which Expressed NaPi-2a
In the test, a group with the addition of choline chloride (Choline Cl) was used as a negative control for nonspecific uptake, and PFA (phosphonoformic acid) was used as a positive control for phosphate transport inhibition.

For the compound `Cc1ccc(/C=N/NC(=O)c2ccccc2NC(=O)c2cccnc2)cc1` [Compound 164, N-[2-(4-Methyl-benzylidene-hydrazinocarbonyl)-phenyl]-nicotinamide hydrochloride], the IC50 on rat NaPi-2b worked out at 4.76 µM. In addition, in the test with SD rats (dose 400 mg/kg), the inhibition in vivo at 400 mg/kg was 55%.
On to `COc1ccc(C(=O)Nc2ccc(Cl)cc2C(=O)N/N=C/c2ccc(C)c(C)c2)cc1OC` [Compound 92, N-[4-Chloro-2-(3,4-dimethyl-benzylidene-hydrazinocarbonyl)-phenyl]-3,4-dimethoxy-benzamide], for which, on rat NaPi-2b, the IC50 came to 0.26 µM. In addition, the inhibition in vivo at 160 mg/kg with SD rats (dose 160 mg/kg) amounted to 25.5%.
As to `Cc1ccc(/C=N/NC(=O)c2ccccc2NC(=O)c2ccncc2)cc1C` [Compound 163, N-[2-(3,4-Dimethyl-benzylidene-hydrazinocarbonyl)-phenyl]-isonicotinamide hydrochloride], at rat NaPi-2b, the IC50 amounted to 1.6 µM. Besides, the inhibition in vivo at 360 mg/kg in the test on SD rats (dose 360 mg/kg) amounted to 57.8%.
For the compound `O=C(Nc1ccc(Br)cc1C(=O)N/N=C/c1cccc(F)c1)c1cccs1` [Compound 157, Thiophene-2-carboxylic acid [4-bromo-2-(3-fluoro-benzylidene-hydrazinocarbonyl)-phenyl]-amide], on rat NaPi-2b, the IC50 is 7.19 µM. In the test with SD rats (dose 320 mg/kg), the inhibition in vivo at 320 mg/kg was found to be 20.7%.
For the compound `Cc1ccc(/C=N/NC(=O)c2cc(Cl)ccc2NC(=O)c2cccc(CN3CCC(N4CCCCC4)CC3)c2)cc1C` [Compound 372, 3-[1,4′]Bipiperidinyl-1′-ylmethyl-N-[4-chloro-2-(3,4-dimethyl-benzylidene-hydrazinocarbonyl)-phenyl]-benzamide], at rat NaPi-2b, the IC50 was 0.8 µM. In the test with SD rats, the inhibition in vivo at 100 mg/kg is 63.7%.
The corresponding values for `COc1cccc(/C=N/NC(=O)c2cc(Br)ccc2NC(=O)c2ccc(CN3CCC(N4CCCCC4)CC3)cc2)c1` [Compound 315, 4-[1,4′]Bipiperidinyl-1′-ylmethyl-N-[4-bromo-2-(3-methoxy-benzylidene-hydrazinocarbonyl)-phenyl]-benzamide] are 9.02 µM and 42.4%.
In the case of `O=C(Nc1sc2ccccc2c1C(=O)N/N=C/c1ccc(Cl)c(C(F)(F)F)c1)c1cccc(CN2CCC(CO)CC2)c1` [Compound 802, N-[3-(4-Chloro-3-trifluoromethyl-benzylidene-hydrazinocarbonyl)-benzo[b]thiophen-2-yl]-3-(4-hydroxymethyl-piperidin-1-ylmethyl)-benzamide], the IC50 was 1.2 µM at rat NaPi-2b and 5.96 µM against human NaPi-2a.
In the case of `COc1ccc(C(=O)Nc2ccc(N3CCCCC3)cc2C(=O)N/N=C/c2ccc(C)c(C)c2)cc1OC` [Compound 935, N-[2-(3,4-Dimethyl-benzylidene-hydrazinocarbonyl)-4-piperidin-1-yl-phenyl]-3,4-dimethoxy-benzamide], the IC50 amounted to 0.17 µM at rat NaPi-2b and 9.68 µM at human NaPi-2a.
With `Cc1ccc(/C=N/NC(=O)c2c(NC(=O)c3cccc(CN(CC(C)O)CC(C)O)c3)sc3ccccc23)cc1` (stereo not shown) [Compound 793, 3-{[Bis-(2-hydroxy-propyl)-amino]-methyl}-N-[3-(4-methyl-benzylidene-hydrazinocarbonyl)-benzo[b]thiophen-2-yl]-benzamide], the IC50 at rat NaPi-2b is 1.41 µM; at human NaPi-2a it was 8.46 µM.
The corresponding values for `O=C(Nc1ccc(N2CCCCC2)cc1C(=O)N/N=C/c1ccc(Cl)c(C(F)(F)F)c1)c1cccc(CNCCN(CCO)CCO)c1` [Compound 914, 3-({2-[Bis-(2-hydroxy-ethyl)-amino]-ethylamino}-methyl)-N-[2-(4-chloro-3-trifluoromethyl-benzylidene-hydrazinocarbonyl)-4-piperidin-1-yl-phenyl]-benzamide] are 1.75 µM and 3.13 µM.
The corresponding values for `Cc1ccc(/C=N/NC(=O)c2cc(N3CCCCC3)ccc2NC(=O)c2cccc(CSCC(O)CO)c2)cc1C` (stereo not shown) [Compound 899, 3-(2,3-Dihydroxy-propylsulfanylmethyl)-N-[2-(3,4-dimethyl-benzylidene-hydrazinocarbonyl)-4-piperidin-1-yl-phenyl]-benzamide] are less than 1 µM and less than 1 µM.
Take `Cc1csc(NC(=O)c2cccc(CN3CCC4(CC3)OCCO4)c2)c1C(=O)N/N=C/c1ccc(Cl)c(C(F)(F)F)c1` [Compound 836, N-[3-(4-Chloro-3-trifluoromethyl-benzylidene-hydrazinocarbonyl)-4-methyl-thiophen-2-yl]-3-(1,4-dioxa-8-aza-spiro[4,5]dec-8-ylmethyl]-benzamide]: the IC50 on rat NaPi-2b was determined as 0.77 µM; against human NaPi-2a, 10.2 µM.
With `CCN(CC)CCN(CCN(CC)CC)Cc1cccc(C(=O)Nc2scc(C)c2C(=O)N/N=C/c2ccc(F)cc2)c1` [Compound 840, 3-{[Bis-(2-diethylamino-ethyl)-amino]-methyl}-N-[3-(4-fluoro-benzylidene-hydrazinocarbonyl)-4-methyl-thiophen-2-yl]-benzamide], the IC50 at rat NaPi-2b came out at 6.95 µM; against human NaPi-2a, 34.1 µM.
The corresponding values for `COc1ccc(C(=O)Nc2ccc(N3CCCCC3)cc2C(=O)N/N=C/c2cccnc2)cc1OC` [Compound 936, 3,4-Dimethoxy-N-[4-piperidin-1-yl-2-(pyridin-3-ylmethylene-hydrazinocarbonyl)-phenyl]-benzamide] are 5.59 µM and 30 µM.
Taken in the same sequence, the figures for `Cc1ccc(/C=N/NC(=O)c2c(NC(=O)c3cccc(CN4CCC(CO)CC4)c3)sc3c2CCCC3)cc1C` [Compound 639, N-[3-(3,4-Dimethyl-benzylidene-hydrazinocarbonyl)-4,5,6,7-tetrahydro-benzo[b]thiophen-2-yl]-3-(4-hydroxymethyl-piperidin-1-ylmethyl)-benzamide] were 1.84 µM and 11.1 µM.
For `COc1ccc(/C=N/NC(=O)c2c(NC(=O)c3cccc(CN(CC(C)O)CC(C)O)c3)sc3c2CCCC3)cc1` (stereo not shown) [Compound 632, 3-{[Bis-(2-hydroxy-propyl)-amino]-methyl}-N-[3-(4-methoxy-benzylidene-hydrazinocarbonyl)-4,5,6,7-tetrahydro-benzo-[b]thiophen-2-yl]-benzamide], the IC50 at rat NaPi-2b is less than 1 µM; on human NaPi-2a it was 28.7 µM.
The corresponding values for `CC(O)CN(Cc1cccc(C(=O)Nc2sc3c(c2C(=O)N/N=C/c2ccc(Cl)c(C(F)(F)F)c2)CCCC3)c1)CC(C)O` (stereo not shown) [Compound 631, 3-{[Bis-(2-hydroxy-propyl)-amino]-methyl}-N-[3-(4-chloro-3-trifluoromethyl-benzylidene-hydrazinocarbonyl)-4,5,6,7-tetrahydro-benzo[b]thiophen-2-yl]-benzamide] are less than 1 µM and 2.43 µM.
